According to PubChem BioAssay (NCI):
Where “and” joins values, the source holds several entries; their conditions need not be identical. Equal values may be shown once.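 Results reflect a 48-hour exposure of cells in 96-well plates to compound at five concentrations. GI50 = concentration required for 50% inhibition of growth. The concentration for full growth arrest is given as TGI.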

Assays:
Test in all cases: NCI-60 cell line screen, 48 h
[1] = system: CCRF-CEM leukemia
[2] = system: HCT-15 colon
[3] = system: HT29 colon
[4] = system: LOX IMVI melanoma
[5] = system: OVCAR-3 ovarian
[6] = system: SF-268 CNS
[7] = system: SF-295 CNS
[8] = system: SK-MEL-5 melanoma
[9] = system: SN12C renal
[10] = system: SNB-75 CNS

| SMILES | TGI [1] [µM] | TGI [2] | TGI [3] | TGI [4] | TGI [5] | TGI [6] | TGI [7] | TGI [8] | TGI [9] | TGI [10] | GI50 [2] [µM] | GI50 [3] [µM] | GI50 [4] [µM] | GI50 [5] [µM] | GI50 [6] [µM] | GI50 [7] [µM] | GI50 [8] [µM] | GI50 [10] [µM] | GI50 [9] [µM] |
| --- | --- | --- | --- | --- | --- | --- | --- | --- | --- | --- | --- | --- | --- | --- | --- | --- | --- | --- | --- |
| COc1cc2c(cc1OC)-c1cc3cc(OC)c(OC)cc3c(C)[n+]1CC2 (tested in a mixture with another compound) | 77 | > 100 µM | > 100 µM | > 100 µM | > 100 µM | > 100 µM | > 100 µM | > 100 µM | > 100 µM |  |  |  |  |  |  |  |  |  |  |
| COc1cccc2c1C(=O)c1c(O)c3c(c(O)c1C2=O)CC(O)(C(C)=O)CC3OC1OC(COC(C)=O)C(OC(C)=O)C(OC(C)=O)C1OC(C)=O (stereo not drawn) | 0.131 | > 100 µM | > 100 µM | > 100 µM | 31.2 µM | 55.1 µM | 62.8 µM | > 100 µM | > 100 µM | 27 µM |  |  |  |  |  |  |  |  |  |
| Oc1ccccc1CNCc1ccccc1O | > 100 | > 100 µM | > 100 µM | > 100 µM | > 100 µM | > 100 µM | > 100 µM | > 100 µM | > 100 µM | > 100 µM |  |  |  |  |  |  |  |  |  |
| O=C(N/N=C/c1cc(Cl)cc(Cl)c1[O-])c1ccccc1O.O=C(N/N=C/c1cc(Cl)cc(Cl)c1[O-])c1ccccc1O.[Cu+2] |  | 1.61 µM | 2.06 µM | 1.46 µM | 0.778 µM | 1.61 µM | 1.26 µM | 0.966 µM |  | 2.13 µM |  |  |  |  |  |  |  |  |  |
| O=C(N/N=C/c1cc(Cl)cc(Cl)c1[O-])c1ccccc1O.O=C(N/N=C/c1cc(Cl)cc(Cl)c1[O-])c1ccccc1O.[Fe+2] | > 100 | 19.3 µM |  | 86.5 µM | 38.5 µM | 38.9 µM | 33.9 µM |  |  | 72.9 µM |  |  |  |  |  |  |  |  |  |
| CCN(CC)CCCNC(=O)c1ccccc1Nc1c(Cl)cccc1Cl | 21.3 | 25.2 µM | 16.5 µM | 22.3 µM |  | 30.2 µM |  | 10.7 µM | 27.2 µM | 15.4 µM |  |  |  |  |  |  |  |  |  |
| NCCNc1ccc(NCCN)c2c1C(=O)c1c(O)ccc(O)c1C2=O | 3.79 | 0.391 µM and 1.26 µM | 1.34 µM and 1.23 µM | 0.252 µM and 0.214 µM | 2.18 µM and 1.66 µM | 0.985 µM and 3.24 µM | 0.414 µM and 0.0618 µM | 1.47 µM and 1.11 µM | 0.0799 µM and 0.0776 µM | 0.206 µM and 0.429 µM | 0.0303 | 0.0922 | 0.031 | 0.385 | 0.0222 | < 0.0131 | 0.0709 | 0.0227 |  |
| Cn1cc(-c2csc(-c3cn(CCCN4CCCCC4)c4ccc(Br)cc34)n2)c2cccnc21 |  |  |  |  | 3.38 µM |  |  | 3.41 µM | 3.31 µM | 5.8 µM |  |  |  | 1.8 |  |  | 1.86 | 1.44 | 1.74 |
| O=[N+]([O-])c1cc(C(F)(F)F)cc2c1SC1=Nc3ccccc3CN12 | > 100 | > 100 µM | > 100 µM | > 100 µM | > 100 µM | > 100 µM | > 100 µM | > 100 µM | > 100 µM | > 100 µM |  |  |  |  |  |  |  |  |  |
| CC(=O)C(C(=O)C(=O)Nc1cc(Cl)c(Cl)cc1Cl)c1csc(N)n1 (stereo not drawn) | > 100 | > 100 µM | > 100 µM | > 100 µM |  | > 100 µM | > 100 µM | > 100 µM | > 100 µM | > 100 µM |  |  |  |  |  |  |  |  |  |
| O=c1[nH]c(Br)nc2n[nH]nc12 | > 100 | > 100 µM | > 100 µM | > 100 µM | > 100 µM | > 100 µM | > 100 µM | > 100 µM | > 100 µM | > 100 µM |  |  |  |  |  |  |  |  |  |
| O=C(N/N=C/c1cc(Cl)cc(Cl)c1[OH2+])c1ccncc1.O=S(=O)([O-])[O-].[Fe+2] | 15.8 | 35.2 µM | 28.6 µM | 0.332 µM | 53.8 µM | > 100 µM | 35.3 µM | > 100 µM | 79.3 µM | > 100 µM |  |  |  |  |  |  |  |  |  |
| C[N+]1(C)C/C(=C\C=C\c2ccccc2)C(=O)/C(=C/C=C/c2ccccc2)C1 | 13.7 | > 100 µM | 26.6 µM | 52.1 µM | 42.6 µM | 43.7 µM | 81.7 µM | 25.2 µM | 62.5 µM | 40.3 µM |  |  |  |  |  |  |  |  |  |
| Nc1n[nH]c(N)n1 | > 9030 | > 10000 µM | > 10000 µM | 7400 µM | > 10000 µM | > 10000 µM | 7800 µM | > 10000 µM | > 8900 µM | > 10000 µM |  |  |  |  |  |  |  |  |  |
| CCCCCC1CC(C(C)=O)CN1c1ccc(F)cc1 (stereo not drawn) |  | > 100 µM | > 100 µM | > 100 µM | 90.1 µM | > 100 µM | 63.3 µM | 38.3 µM | > 100 µM | 86.5 µM |  |  |  |  |  |  |  |  |  |
| Oc1c(Cl)c(Cl)c(O)c(-c2cnc(-c3ncc(-c4c(O)c(Cl)c(Cl)c(O)c4Cl)s3)s2)c1Cl | > 100 | 33.3 µM | > 100 µM |  | 52.4 µM | 55.3 µM | 41.9 µM | 30.1 µM | 66.3 µM | 71.7 µM |  |  |  |  |  |  |  |  |  |
| CC(=O)OC1(C)CC(C)C(=O)C(C(O)CC2CC(=O)NC(=O)C2)C1 (stereo not drawn) |  | 0.176 µM | 0.133 µM | 0.296 µM and 0.103 µM | 1.62 µM | 1.42 µM | 0.03 µM | 0.147 µM and 0.023 µM |  | 0.0119 µM |  |  |  |  |  |  |  |  |  |
